# Where “and” joins values, the source holds several entries; their conditions need not be identical. Identical values can stand only once.
# Assays:
# [1] = parameters: method as in PMID 27089552; details: group of 7 patients; cited from earlier work
# [2] = Whole-body activity measurement with external gamma probe and analysis of excreted activity; assay type: in vivo, patients; details: for Excreted activity Aex between given time point and previous time point, max / Excreted activity Aex between given time point and previous time point, mean / Excreted activity Aex between given time point and previous time point, min / Overall excreted activity as percentage of administered activity, max / Overall excreted activity as percentage of administered activity, mean / Overall excreted activity as percentage of administered activity, min: 25 patients (Department 2)
# Procedure: The analysis of the excretion of unbound ^177Lu-PSMA ligands and lutetium-177 was performed indirectly by measuring the remaining activity within the body of the patients at different time points with an external gamma probe. This has been proven to be a fast, simple, and robust method to estimate the activity within the body of the patient. The difference compared with the expected activity that can be calculated directly by the physical decay of the administered activity is assumed to be equivalent to the excreted activity.
# The measurements were carried out in Department 2, using a cohort of 25 patients (see Table 1). The whole-body activity was measured at 0 h (before voiding, reference) and approximately at 2, 4, 12, 24, 48, and 72 h after the administration of ^177Lu-PSMA-617.
# The remaining activity AWB in the patient at the given time point ti was determined by the following equation:1 AWBti=CAti⋅CPti/CFP, where cA(ti) and cP(ti) are the count rates (compensated for the background) at the given time point for the anterior and posterior views respectively. CFP is a patient-specific calibration factor based on a baseline measurement of each patient, performed immediately after administration of ^177Lu-PSMA-617 and before the first voiding of the bladder. This factor is calculated according to the following equation:2 CFP=CA0⋅Cp0/AP, where AP is the administered activity. This factor represents the efficiency of the detector for the spatially distributed activity and intrinsically considers the self-attenuation of the γ photons by the body of the patient.
# The excreted activity Aex at the time point ti was calculated as the difference of the whole-body activity at the previous time point ti − 1 (corrected for decay) and the whole-body activity at the time point ti. The whole extracted activity can then be calculated as a summation:3 Aex=∑j=1iAWBti−1e^−ln2/T1/2∙ti−ti−1−AWBti,
# A 3″ × 3″-NaI (Tl) detector (Type 905-4) with multichannel analyzer and software (digiBASE, MAESTRO, Ortec, Oak Ridge, USA) was used as a measurement system. It was calibrated using americium-241, cobalt-57, cesium-137, and iodine-131 test sources, and regular quality checks were carried out. The shielded detector (collimator of 3 cm lead) was positioned 1 m above the floor, and the field of view covered the whole body of the patient. The energy window was set to 208 keV ± 27%, corresponding to approximately 3 × full width at half maximum of the energy resolution of the NaI (Tl) detector. The background was measured for 300 s without the presence of a patient. Patients were measured in anterior and posterior standing positions while holding arms close to the body at a distance of 2 m from the collimator surface. For all measurements, the acquisition time corrected for dead-time effects was set to 90 s. […] No further corrections (e.g., for pile-up or non-linearity) were applied. Statistical uncertainties of the count rate were below 1% for all measurements, as recommended by Hindorf et al.. Bi-exponential functions were fitted to the data, and the effective half-lives were calculated. The bi-exponential fit model was chosen after comparing the quality of fit of mono- and bi-exponential models using the Akaike criterion as described by Kletting et al..
# [3] = Estimation of dose to the public after discharge of the patient (Eq. 4); assay type: in vivo, patients
# From the text: The determination of the expected dose D to the public requires knowledge of the dose rate DR at the time point of the release of the patient and of the effective half-life T1/2eff. The dose D can then be calculated according to the following equation:4 D=DR∙T1/2eff/ln2.
# This equation was originally recommended by the German Commission on Radiological Protection to conservatively estimate the dose to the public after iodine-131 therapy.
# The data were fitted by a mono-exponential curve, and the effective half-life was calculated for the different time points: 24, 48, and 72 h (only from the data of Department 2). […] For all comparisons, the time point 48 h was chosen as the reference, because it is standard that the patients are released from the therapy ward after 48 h. Subsequently, Eq. 4 was used to determine the dose D to the public after the discharge of the patient for different time points of release (24, 48, and 72 h p. i.), substituting T1/2eff by T1/2ind (individual half-life of each patient), T1/2phys (physical half-life of ^177Lu), and T1/2max (maximum of the calculated effective half-life of the patient cohort) for different calculations. In addition, a correlation analysis (Spearman and Pearson) of the dose rate and administered activity was performed.
# [4] = discharge 24 h p. i., T1/2ind (value from the 48-h measurement point)
# [5] = discharge 72 h p. i., T1/2ind, 25 patients (Department 2)
# [6] = discharge 72 h p. i., T1/2max, 25 patients (Department 2)
# [7] = discharge 72 h p. i., T1/2phys, 25 patients (Department 2)
smiles,measurement,setting,value
O=C([O-])CN1CCN(CC(=O)[O-])CCN(CC(=O)NCC2CCC(C(=O)N[C@@H](Cc3ccc4ccccc4c3)C(=O)NCCCC[C@H](NC(=O)N[C@@H](CCC(=O)O)C(=O)O)C(=O)O)CC2)CCN(CC(=O)[O-])CC1.[177Lu+3] (stereo partly shown) [^177Lu-PSMA-617],"Administered activity excreted within the first 6 h, mean",[1],45%
same,"Excreted activity Aex between given time point and previous time point, max",[2]; 2 h p. i.,2621 MBq
same,"Excreted activity Aex between given time point and previous time point, mean",[2]; 2 h p. i.,1718 MBq
same,"Excreted activity Aex between given time point and previous time point, min",[2]; 2 h p. i.,735 MBq
same,"Overall excreted activity as percentage of administered activity, max",[2]; 2 h p. i.,42%
same,"Overall excreted activity as percentage of administered activity, mean",[2]; 2 h p. i.,30%
same,"Overall excreted activity as percentage of administered activity, min",[2]; 2 h p. i.,13%
same,"Excreted activity Aex between given time point and previous time point, max",[2]; 4 h p. i.,1526 MBq
same,"Excreted activity Aex between given time point and previous time point, mean",[2]; 4 h p. i.,1265 MBq
same,"Excreted activity Aex between given time point and previous time point, min",[2]; 4 h p. i.,1060 MBq
same,"Overall excreted activity as percentage of administered activity, max",[2]; 4 h p. i.,62%
same,"Overall excreted activity as percentage of administered activity, min",[2]; 4 h p. i.,30%
same,"Excreted activity Aex between given time point and previous time point, max",[2]; 12 h p. i.,1323 MBq
same,"Excreted activity Aex between given time point and previous time point, mean",[2]; 12 h p. i.,1155 MBq
same,"Excreted activity Aex between given time point and previous time point, min",[2]; 12 h p. i.,1009 MBq
same,"Overall excreted activity as percentage of administered activity, max",[2]; 12 h p. i.,82%
same,"Overall excreted activity as percentage of administered activity, min",[2]; 12 h p. i.,48%
same,"Excreted activity Aex between given time point and previous time point, max",[2]; 24 h p. i.,474 MBq
same,"Excreted activity Aex between given time point and previous time point, mean",[2]; 24 h p. i.,395 MBq
same,"Excreted activity Aex between given time point and previous time point, min",[2]; 24 h p. i.,318 MBq
same,"Overall excreted activity as percentage of administered activity, max",[2]; 24 h p. i.,87%
same,"Overall excreted activity as percentage of administered activity, mean",[2]; 24 h p. i.,76%
same,"Overall excreted activity as percentage of administered activity, min",[2]; 24 h p. i.,53%
same,"Excreted activity Aex between given time point and previous time point, max",[2]; 48 h p. i.,265 MBq
same,"Excreted activity Aex between given time point and previous time point, mean",[2]; 48 h p. i.,219 MBq
same,"Excreted activity Aex between given time point and previous time point, min",[2]; 48 h p. i.,160 MBq
same,"Overall excreted activity as percentage of administered activity, max",[2]; 48 h p. i.,89%
same,"Overall excreted activity as percentage of administered activity, mean",[2]; 48 h p. i.,77%
same,"Overall excreted activity as percentage of administered activity, min",[2]; 48 h p. i.,50%
same,"Excreted activity Aex between given time point and previous time point, max",[2]; 72 h p. i.,82 MBq
same,"Excreted activity Aex between given time point and previous time point, mean",[2]; 72 h p. i.,68 MBq
same,"Excreted activity Aex between given time point and previous time point, min",[2]; 72 h p. i.,50 MBq
same,"Overall excreted activity as percentage of administered activity, max",[2]; 72 h p. i.,89%
same,"Overall excreted activity as percentage of administered activity, mean",[2]; 72 h p. i.,78%
same,"Overall excreted activity as percentage of administered activity, min",[2]; 72 h p. i.,54%
same,Clearance of the unbound compound from the body,[2]; in words,rapidly cleared from the body
same,"Excreted activity over a period of 72 h (per therapy cycle and patient), average","[2]; of the administered 6.6 GBq, patient cohort 2",approximately 4.8 GBq
same,"Estimated dose to the public after 1 cycle, mean",[3]; [4],100 μSv and 99 μSv
same,"Estimated dose to the public after 1 cycle, min",[3]; [4],25 μSv
same,"Estimated dose to the public after 1 cycle, max","[3]; discharge 24 h p. i., T1/2max",410 μSv
same,"Estimated dose to the public after 1 cycle, mean","[3]; discharge 24 h p. i., T1/2max",208 μSv
same,"Estimated dose to the public after 1 cycle, min","[3]; discharge 24 h p. i., T1/2max",75 μSv
same,"Estimated dose to the public after 1 cycle, max","[3]; discharge 24 h p. i., T1/2phys",779 μSv
same,"Estimated dose to the public after 1 cycle, mean","[3]; discharge 24 h p. i., T1/2phys",396 μSv
same,"Estimated dose to the public after 1 cycle, min","[3]; discharge 24 h p. i., T1/2phys",142 μSv
same,"Estimated dose to the public after 1 cycle, min","[3]; discharge 48 h p. i., T1/2ind",13 μSv
same,"Estimated dose to the public after 1 cycle, max","[3]; discharge 48 h p. i., T1/2max",294 μSv
same,"Estimated dose to the public after 1 cycle, mean","[3]; discharge 48 h p. i., T1/2max",139 μSv
same,"Estimated dose to the public after 1 cycle, min","[3]; discharge 48 h p. i., T1/2max",49 μSv
same,"Estimated dose to the public after 1 cycle, max","[3]; discharge 48 h p. i., T1/2phys",560 μSv
same,"Estimated dose to the public after 1 cycle, mean","[3]; discharge 48 h p. i., T1/2phys",263 μSv
same,"Estimated dose to the public after 1 cycle, min","[3]; discharge 48 h p. i., T1/2phys",93 μSv
same,"Estimated dose to the public after 1 cycle, max",[3]; [5],204 μSv
same,"Estimated dose to the public after 1 cycle, mean",[3]; [5],50 μSv
same,"Estimated dose to the public after 1 cycle, min",[3]; [5],17 μSv
same,"Estimated dose to the public after 1 cycle, max",[3]; [6],233 μSv
same,"Estimated dose to the public after 1 cycle, mean",[3]; [6],105 μSv
same,"Estimated dose to the public after 1 cycle, min",[3]; [6],49 μSv
same,"Estimated dose to the public after 1 cycle, max",[3]; [7],443 μSv
same,"Estimated dose to the public after 1 cycle, mean",[3]; [7],200 μSv
same,"Estimated dose to the public after 1 cycle, min",[3]; [7],93 μSv
same,Expected dose to the public per cycle of therapy,"[3]; human, in vivo",below 1 mSv
same,Maximum dose to individual members of the public per treatment cycle,[3]; patient discharged after 72 h,~ 190 ± 36 μSv
same,Estimated dose to the public per cycle,[3]; physical half-life of lutetium-177 used for the calculation (conservative approach),below 1 mSv

# Source: paper PMC5897276, “External radiation exposure, excretion, and effective half-life in ^177Lu-PSMA-targeted therapies” (EJNMMI Research, 2018)
